We go through seven compounds from US9708336B2, “Metallo-beta-lactamase inhibitors” (priority 2014, dated 2017).

The test system of experiment [1] is Escherichia coli expressing NDM-1 (CLB30016). In words: Antibiotic potentiation activity: synergistic concentration (MITC95) with imipenem, OD600 growth. Format: cell-based. To be noted: CLB30016 (NDM-1), 95% inhibition of bacterial growth. Summed up:
(§1)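 CLB30005 was precultured on Mueller Hinton agar with 8 ug/ml imipenem, the other strains on trypticase soy agar with 5% sheep blood, overnight at 35 °C. Saline suspensions diluted 1:100 in 1.1× CAMHB received compound and 4 μg/ml imipenem, then 22–24 h at 35 °C before absorbance reading.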

For experiment [2], the system named is Klebsiella pneumoniae expressing VIM-1 (IHMA599644). The description is as above. The format is cell-based. The following applies: IHMA599644 (VIM-1), 95% inhibition of bacterial growth. The essentials: as §1
In experiment [3] the test system is Serratia marcescens expressing IMP-1 (CL5741). Described as above. The format is cell-based. To be noted: CL5741 (IMP-1), 95% inhibition of bacterial growth. Summed up:
as §1

The next experiment has as its target NDM-1 (Klebsiella pneumoniae, UniProt C7C422). In words: biochemical. Format: biochemical. To be noted: fluorescence assay with CCF2-FA substrate; read-out: NDM-1 IC50.
The target in another experiment is VIM-1 (Pseudomonas aeruginosa (strain ATCC 15692 / DSM 22644 / CIP 104116 / JCM 14847 / LMG 12228 / 1C / PRS 101 / PAO1), UniProt A0A0F7KYQ8). In words: Enzyme activity: determination of IC50, fluorescence assay with CCF2-FA substrate (VIM-1). Format: biochemical. The following applies: fluorescence assay with CCF2-FA substrate; read-out: VIM-1 IC50.
The target in the next experiment is IMP-1 (Serratia marcescens, UniProt P52699). The experiment can be described thus: biochemical. The format is biochemical. The following applies: fluorescence assay with CCF2-FA substrate; read-out: IMP-1 IC50.

The structures appear in SMILES notation.

Sequence of NDM-1 (C7C422 whole entry, looked up, species assumed): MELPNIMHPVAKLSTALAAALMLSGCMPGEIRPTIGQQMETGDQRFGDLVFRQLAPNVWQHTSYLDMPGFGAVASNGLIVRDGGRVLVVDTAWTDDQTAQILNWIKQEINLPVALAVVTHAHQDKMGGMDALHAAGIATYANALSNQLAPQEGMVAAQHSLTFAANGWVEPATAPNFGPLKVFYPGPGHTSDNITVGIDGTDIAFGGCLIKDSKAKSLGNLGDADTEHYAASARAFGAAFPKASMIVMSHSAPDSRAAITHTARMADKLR
Sequence of IMP-1 (P52699 whole entry, looked up): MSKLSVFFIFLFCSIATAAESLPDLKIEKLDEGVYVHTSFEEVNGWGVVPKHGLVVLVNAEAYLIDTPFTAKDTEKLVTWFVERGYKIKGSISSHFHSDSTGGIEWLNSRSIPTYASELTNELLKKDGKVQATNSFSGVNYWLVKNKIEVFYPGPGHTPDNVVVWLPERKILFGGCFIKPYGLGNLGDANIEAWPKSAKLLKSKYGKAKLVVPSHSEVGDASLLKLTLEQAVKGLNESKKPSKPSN

Broadly, the IC50 is the concentration that inhibits the measured activity by half. With `NC1(CNC2CCC(c3ccc(C(F)(F)F)c(S(N)(=O)=O)c3-c3nnn[nH]3)CC2)CC1` (stereo not drawn) [Example 830, 3-[4-[(1-aminocyclopropyl)methylamino]cyclohexyl]-2-(1H-tetrazol-5-yl)-6-(trifluoromethyl)benzenesulfonamide], the “Escherichia coli MITC95” value in experiment [1] is 0.25 µM. Besides, the “Klebsiella pneumoniae MITC95” value in experiment [2] was determined as 0.8542 µM. Also, the “Serratia marcescens MITC95” value in experiment [3] came out at 0.724 µM. For the same compound, the IC50 on NDM-1 was 1.93 nM; at VIM-1, 0.247 nM; on IMP-1 it was 3.82 nM.

Take `NS(=O)(=O)c1c(C(F)(F)F)ccc([C@H]2CC[C@@H](C3CCNCC3)CC2)c1-c1nnn[nH]1` [Example 831, 3-((1s,4s)-4-(piperidin-4-yl)cyclohexyl)-2-(1H-tetrazol-5-yl)-6-(trifluoromethyl)benzenesulfonamide]: the “Escherichia coli MITC95” value in experiment [1] came out at 2.344 µM. Also, the “Klebsiella pneumoniae MITC95” value in experiment [2] amounted to 50 µM. The “Serratia marcescens MITC95” value in experiment [3] turned out to be 3.125 µM. For the same compound, the IC50 is 0.817 nM at NDM-1, 2.84 nM on VIM-1 and 0.892 nM at IMP-1.

As to `NS(=O)(=O)c1c(C(F)(F)F)ccc([C@H]2CC[C@H](C3CCNCC3)CC2)c1-c1nnn[nH]1` [Example 832, 3-((1r,4r)-4-(piperidin-4-yl)cyclohexyl)-2-(1H-tetrazol-5-yl)-6-(trifluoromethyl)benzenesulfonamide], in experiment [1], the “Escherichia coli MITC95” value came out at 1.563 µM. Further, the “Klebsiella pneumoniae MITC95” value in experiment [2] came out at 4.688 µM. The “Serratia marcescens MITC95” value in experiment [3] was 3.125 µM. The figures for the IC50 at NDM-1, on VIM-1 and on IMP-1 were 0.501 nM, 0.212 nM and 1.46 nM, respectively.

For the compound `NS(=O)(=O)c1c(C(F)(F)F)ccc(C2CCC3(CCNCC3)CC2)c1-c1nnn[nH]1` [Example 833, 3-(3-azaspiro[5.5]undecan-9-yl)-2-(1H-tetrazol-5-yl)-6-(trifluoromethyl)benzenesulfonamide], in experiment [1], the “Escherichia coli MITC95” value turned out to be 1.563 µM. Also, the “Klebsiella pneumoniae MITC95” value in experiment [2] is 12.5 µM. Besides, the “Serratia marcescens MITC95” value in experiment [3] stood at 3.125 µM. For the same compound, the IC50 on NDM-1 was 0.74 nM; on VIM-1 it was 3.33 nM; on IMP-1, 4.31 nM.

For `NC1(CN2CCC3(CCC(c4ccc(C(F)(F)F)c(S(N)(=O)=O)c4-c4nnn[nH]4)CC3)CC2)CC1` [Example 834, 3-[3-[(1-aminocyclopropyl)methyl]-3-azaspiro[5.5]undecan-9-yl]-2-(1H-tetrazol-5-yl)-6-(trifluoromethyl)benzenesulfonamide], in experiment [1], the “Escherichia coli MITC95” value is 6.25 µM. For the same compound, the “Klebsiella pneumoniae MITC95” value in experiment [2] was 50 µM. Further, the “Serratia marcescens MITC95” value in experiment [3] came to 6.25 µM. Further, the IC50 on NDM-1 came out at 1.49 nM; at VIM-1 it was 13.3 nM; on IMP-1 it was 5.45 nM.

In the case of `NS(=O)(=O)c1c(C(F)(F)F)ccc(C2CCN(C3CCNCC3)CC2)c1-c1nnn[nH]1` [Example 835, 3-[1-(4-piperidyl)-4-piperidyl]-2-(1H-tetrazol-5-yl)-6-(trifluoromethyl)benzenesulfonamide], the “Escherichia coli MITC95” value in experiment [1] was determined as 3.125 µM. Moreover, the “Klebsiella pneumoniae MITC95” value in experiment [2] came to 100 µM. The “Serratia marcescens MITC95” value in experiment [3] was determined as 6.25 µM. Also, the results for the half-maximal inhibitory concentration (IC50) at NDM-1, on VIM-1 and on IMP-1 were 96 nM, 190 nM and 232 nM, respectively.

`NC1Cc2cccc(-c3ccc(C(F)(F)F)c(S(N)(=O)=O)c3-c3nnn[nH]3)c2C1` (stereo not drawn) [Example 836, 3-(2-aminoindan-4-yl)-2-(1H-tetrazol-5-yl)-6-(trifluoromethyl)benzenesulfonamide]: the “Escherichia coli MITC95” value in experiment [1] worked out at 2.344 µM. Further, the “Klebsiella pneumoniae MITC95” value in experiment [2] amounted to 1.563 µM. The “Serratia marcescens MITC95” value in experiment [3] was 4.688 µM. Also, the figures for the IC50 at NDM-1, on VIM-1 and on IMP-1 were 54.9 nM, 2.39 nM and 134 nM, respectively.
